This is an account of results in patent US20040157809A1, “Composition comprising an androgen receptor blocker and an insulin sensitizing agent and use thereof for treatment of polycystic ovary syndrome” (priority 2001, published 2004).

The subject of series [1] is women with ovarian hyperandrogenism. Put plainly: Example 1: ovulation assessment by weekly serum progesterone. The conditions noted are these: after 9 months; weekly serum progesterone measurements. The series is classed as in vivo, human. An excerpt: Prior to start of treatment, ovulatory function was documented twice (months −3 and −1) by measuring serum progesterone concentrations in 4 consecutive samples obtained with an interval of 1 week. […] The ovulation results before start of treatment are the average of the results obtained during month -3 and -1, whereas the 3 months results are the mean of those obtained after 2 and 4 months on treatment.

For series [2] the test system is unchanged. Briefly: Example 1: tolerability and safety variables (blood count, liver-kidney function). The format is in vivo, human. As to conditions: flutamide 250 mg/day. The text has this:
After 6 months on either monotherapy or combined therapy, fasting glucose and insulin were reassessed together with serum LH (luteinizing hormone), FSH (Follicle stimulating hormone), estradiol, testosterone, androstenedione, DHEAS, SHBG, and lipid profile. Blood count and liver-kidney function were also screened after 1, 3, and 6 months, as additional safety variables.

Each structure is given as a SMILES string.

On to `CC(C)C(=O)Nc1ccc([N+](=O)[O-])c(C(F)(F)F)c1` [Flutamide, 2-methyl-N-[4-nitro-3(trifluoromethyl)phenyl] popanamide], for which, in series [1], the “monthly fraction of ovulatory cycles” value stood at 20%. Moreover, the “women complaining of dry skin” value in series [2] is listed as 1 of 10.
